Assay results taken from the NIST ThermoML archive (doi:10.1021/je9008574).
“And” between values parts separate entries of the source, which are not always exact repeats. Equal entries are not always repeated.

Details: Crystal

[Cl-].[Cl-].[Ga+2] [gallium(II) chloride]
Details	vapor or sublimation pressure
372 K	4.571e-05 kPa
374 K	3.09e-05 kPa
375 K	6.166e-05 kPa and 4.571e-05 kPa and 3.388e-05 kPa
378 K	4.571e-05 kPa
378.5 K	6.166e-05 kPa
379 K	9.12e-05 kPa
381 K	7.762e-05 kPa
381.5 K	6.761e-05 kPa
382.5 K	9.12e-05 kPa
383.5 K	0.0001202 kPa
384 K	0.0001202 kPa and 0.000123 kPa
385 K	0.0001072 kPa
386 K	0.0001514 kPa and 0.0001778 kPa
386.5 K	0.000123 kPa and 0.0001023 kPa
387 K	0.0001862 kPa
387.5 K	0.000123 kPa
388.5 K	0.0001778 kPa
389 K	0.0002089 kPa
390 K	0.0002399 kPa
390.5 K	0.0001549 kPa
391 K	0.0001698 kPa and 0.0001862 kPa
391.5 K	0.0002399 kPa and 0.0002754 kPa
392 K	0.000302 kPa
393 K	0.0001862 kPa
393.5 K	0.000302 kPa
394 K	0.0002455 kPa and 0.0003311 kPa and 0.0002138 kPa
395 K	0.0002754 kPa
396 K	0.0002951 kPa
396.5 K	0.000309 kPa
397.5 K	0.000389 kPa and 0.0005248 kPa
398 K	0.0002951 kPa and 0.0004169 kPa and 0.0004467 kPa
398.5 K	0.0004786 kPa
399 K	0.0003388 kPa and 0.0004786 kPa
399.5 K	0.0003802 kPa and 0.0003981 kPa and 0.000302 kPa
401 K	0.0005129 kPa
402 K	0.0007244 kPa and 0.0007413 kPa
402.5 K	0.0006607 kPa and 0.000389 kPa
403 K	0.0006607 kPa and 0.0004786 kPa
403.5 K	0.0005495 kPa
404 K	0.0007762 kPa
405 K	0.0006761 kPa and 0.0005888 kPa
405.5 K	0.0007762 kPa
406 K	0.000955 kPa and 0.0006761 kPa
406.5 K	0.0008913 kPa
407.5 K	0.000955 kPa and 0.0007762 kPa
408 K	0.0007079 kPa
409 K	0.0007762 kPa and 0.001023 kPa and 0.0007079 kPa
410 K	0.001202 kPa
410.5 K	0.000871 kPa and 0.001259 kPa and 0.001072 kPa
411 K	0.001023 kPa
411.5 K	0.001318 kPa and 0.001549 kPa
413 K	0.0009772 kPa and 0.001445 kPa
413.5 K	0.001514 kPa and 0.001445 kPa
414 K	0.001202 kPa and 0.001259 kPa and 0.001072 kPa
414.5 K	0.001288 kPa
415 K	0.002138 kPa
415.5 K	0.001259 kPa and 0.001905 kPa and 0.001862 kPa
416 K	0.001413 kPa and 0.001778 kPa
416.5 K	0.001905 kPa and 0.001549 kPa and 0.001288 kPa
417 K	0.001585 kPa and 0.001549 kPa
417.5 K	0.002089 kPa and 0.001698 kPa
418 K	0.002138 kPa
418.5 K	0.002399 kPa
419 K	0.002399 kPa and 0.002138 kPa
420 K	0.00195 kPa and 0.00263 kPa
421 K	0.003388 kPa and 0.002138 kPa
421.5 K	0.002138 kPa and 0.00302 kPa and 0.002951 kPa
422 K	0.002138 kPa and 0.002344 kPa
422.5 K	0.003236 kPa and 0.00302 kPa
423.5 K	0.002291 kPa
424 K	0.003802 kPa
424.5 K	0.002512 kPa and 0.002818 kPa
425.5 K	0.004266 kPa
426 K	0.003981 kPa [middle of 5 runs]
427 K	0.002754 kPa
427.5 K	0.004571 kPa and 0.003467 kPa
428 K	0.003236 kPa
428.5 K	0.003388 kPa and 0.004677 kPa
429 K	0.005248 kPa and 0.005129 kPa
430 K	0.004365 kPa and 0.005248 kPa and 0.003311 kPa
430.5 K	0.006026 kPa
431 K	0.003715 kPa
432 K	0.006457 kPa and 0.006761 kPa
432.5 K	0.004365 kPa
433 K	0.007079 kPa
434 K	0.006026 kPa and 0.005495 kPa
435.5 K	0.007943 kPa
436 K	0.005623 kPa and 0.008318 kPa and 0.005495 kPa
437 K	0.008913 kPa
438 K	0.007586 kPa
439 K	0.01 kPa
440 K	0.01096 kPa and 0.01072 kPa
441 K	0.00871 kPa and 0.007762 kPa
